Laboratory results taken from US20210038730A1, “PEPTIDE NANOFIBERS” (UNIVERSITY OF PORTSMOUTH HIGHER EDUCATION CORPORATION, priority 2018, published 2021).

Assays:
[1] = system: rat red blood cells (RBCs); format: cell-based; conditions: 1 hour, 37° C., read-out: IC50 of haemolysis
Procedure: Fresh blood, obtained from adult male Wistar rats (250 to 300 g) (Bioresources Unit, School of Pharmacy and Biomedical Sciences, University of Portsmouth, Portsmouth, UK) was collected in sterile lithium heparin-coated tubes (170 I.U., Vacutainer, BD Bioscience, UK) and kept on ice. To isolate the rat red blood cells (RBCs), fresh blood was centrifuged at 2,000 g using Haraeus Multifuge […] (Thermo Scientific, UK) at 4° C. for 10 minutes. The supernatant was removed, and the final volume was raised to the whole blood volume with PBS (0.01 M, pH 7.4). RBCs were centrifuged at 2,000 g for 10 minutes and washed with PBS three times. After the washing steps, two cell suspensions were prepared: 4% (w/v) RBCs in PBS and 1% (v/v) Triton X-100 (i.e. 1 g of cells in 25 mL of PBS or 1% (v/v) Triton X-100). RBCs in PBS and in Triton X-100 were used as a negative and positive control, respectively. […] After incubation, the cells were centrifuged at 1,200 g using a Haraeus Multifuge […] (Thermo Scientific, UK) during 10 minutes. The supernatant (100 μL) was transferred to a 96-well plate, and absorbance was measured at 590 nm. Percentage of haemolysis was calculated using Equation 1: [formula] Abs Negative Control represents the absorbance of the RBCs in PBS and Abs Positive Control the absorbance of the RBCs in 1% (v/v) Triton X-100. A control for Cremophor EL and ethanol mixture was also included.

[2] = Isoelectric point by acid-base titration; format: physicochemical
Procedure: Both peptides were characterised by electrospray ionisation (positive/negative) mass spectrometry (MS), nuclear magnetic resonance (NMR), RP-HPLC, attenuated total reflectance Fourier-transformed infrared (ATR-FTIR) spectroscopy, thermogravimetric analysis (TGA) and differential scanning calorimetry (DSC). The isoelectric point of the peptides was also determined using an acid-base titration.

[3] = Enzymatic stability in MDA-MB-231 cell homogenates
Procedure: Fresh blood, obtained from adult male Wistar rats, was collected in sterile the 170 I.U. lithium heparin-coated tubes (Vacutainer, BD Bioscience, UK). Blood was centrifuged immediately at 2,000 g for 15 minutes (4° C.) and supernatant was collected and diluted to 50% (v/v) with PBS. Livers and brains were obtained from adult male Wistar rats, and the tissues were blotted to dryness, weighed, sliced into pieces, and homogenised with ice-cold PBS (in 2 mL of buffer g^−1 of tissue) using the glass homogeniser. Then, tissue homogenates were centrifuged at 4,300 g for 1 hour (4° C.) and the supernatants collected. Glioblastoma cell homogenates were prepared using U-87 MG cells. Cells were cultured in Eagle's Minimum Essential Medium (EMEM) supplemented with 10% (v/v) heat-inactivated fetal bovine serum (FBS), 1% (v/v) of non-essential amino acids (NEAA) and 1 mM of sodium pyruvate in T75 flasks with a surface area of 75 cm^2 and maintained in a humidified atmosphere of 5% CO2 at 37° C. Breast cancer cell homogenates were prepared using MDA-MB-231 cells. Cells were cultured in Dulbecco's Modified Eagle Medium (DMEM) supplemented with high levels of glucose (4.5 g/L), 10% (v/v) heat-inactivated fetal bovine serum (FBS), 1% (v/v) of non-essential amino acids (NEAA) and penicillin and streptomycin (500 units/mL) in T75 flasks with a surface area of 75 cm^2 and maintained in a humidified atmosphere of 5% CO2 at 37° C. Media was changed for both cell lines every 3 to 4 days. After reaching confluence, cells were washed twice with Hank's Balanced Salt Solution (HBSS) and incubated with ˜2 mL of TrypLE Enzyme at 37° C. for ˜3 minutes. Then, complete media were added, and cells were centrifuged at 1,000 rpm for 5 minutes in C-28A centrifuge (Boeco, Germany). U-87 MG or MDA-MB-231 cells (˜10×10^6 cells mL^−1) were re-suspended in ice-cold PBS, and homogenised with a 2×5 second pulses with the probe sonicator (UP200S Ultrasonic processor, SciMed, 200 watts, amplitude of 60%). Cell debris were removed by centrifugation at 2,000 rpm for 5 minutes (Jouan B4i, Thermo Scientific, Paisley, UK). Supernatant was collected and stored at −80° C. Total protein concentration in the homogenates was determined using the Bradford assay with bovine serum albumin as a standard. Diluted plasma, tissue or cell homogenates were pre-warmed during ˜30 minutes at 37° C. Peptide stock solutions (Glu-GnRH, goserelin acetate and TPGnRH, 5 mM in PBS, 500 μL) were prepared and added to the homogenate solutions (120 μL). PAX-loaded nanofibers prepared at a ratio of 1:7.36 [PAX:TPGnRH consisting of 3 μmol (2.56 mg mL^−1) of PAX, 22.02 μmol (31.46 mg mL^−1) of TPGnRH], as previously described, and further diluted in PBS to achieve a concentration of 5 mM of TPGnRH and 500 nM of PAX (120 μL) were added to the homogenates. At various time intervals, an aliquot was collected (80 μL) and added to ice-cold ACN (80 μL) to quench the enzymatic activity. Samples were stored at −80° C. for at least 3 hours to maximise protein precipitation. Samples were vortexed for 15 minutes, centrifuged for 15 minutes at 12,000 rpm, and the supernatants were collected and analysed by RP-HPLC.

U-87 MG cells = assay: Apoptosis (Annexin V-FITC); format: cell-based, human; conditions: >7 μM, every two days, 6 days of treatment
Procedure: In vitro antitumour effects of TPGnRH and PAX-loaded TPGnRH were assessed in U-87 MG cells, UP-007, UP-029, SEBTA-023 MDA-MD-231 [triple negative (ER^−, PR—, HER2^−) breast cancer cell line] and SK-OV-3 (human ovarian carcinoma with a low expression of GnRH-R). Cells were seeded at 1,400 cells/cm^2 and allowed to attach and grow for 3 days. In experiments with TPGnRH nanofibers alone (to obtain the IC50 value in each cell line), cells were treated with medium supplemented with the peptide solutions in PBS (0.7 to 700 μM) to achieve a final concentration of 0.07 to 70 μM per well. Media was replaced by fresh media every two days for 6 days. […] On day 4, PAX-loaded TPGnRH nanofibers containing 1 nM of PAX and 7 or 35 μM of TPGnRH were added and the effect on cell viability, proliferation, cell cycle, and apoptosis was assessed on day 6. Only for the MDA-MB-231 cells, on day 4, PAX-loaded TPGnRH nanofibers containing 10 nM of PAX and 7 or 35 μM of TPGnRH were added and the effect on cell viability, proliferation, cell cycle, and apoptosis was also assessed on day 6. […] Cell metabolic activity was measured using MTT assay. […] Afterwards, dimethyl sulfoxide (100 μL) was added to the wells to dissolve the formazan crystals and the absorbance was measured at 570 and 690 nm. […] Cells were incubated with BrdU for 24 hours before the end of the pre-determined time-points. […]

[4] = human, MDA-MB-231 breast cancer cell homogenate

CCCCCCCCCCCCCCCC(=O)Oc1ccc(C[C@H](NC(=O)[C@H](CO)NC(=O)[C@H](Cc2c[nH]c3ccccc23)NC(=O)[C@H](Cc2c[nH]cn2)NC(=O)[C@@H](N)CCC(=O)O)C(=O)NCC(=O)N[C@@H](CC(C)C)C(=O)N[C@@H](CCCNC(=N)N)C(=O)N2CCC[C@H]2C(=O)NCC(N)=O)cc1 [TPGnRH, Tyrosine (O-Palmitoyl)-Glu-GnRH]
IC50 [1]: ~200 µM
Isoelectric point [2]: 6.28±0.51
Plateau ([3]; MDA-MB-231 cell homogenates): 325.8 µg/mL
k ([3]; MDA-MB-231 cell homogenates): 2.224 min⁻¹
AUC(0-t) at 4.03 mM [3, 4]: 105000 µg·h/mL
C0 at 4.03 mM [3, 4]: 710 µg/mL
effect on apoptosis (U-87 MG cells): trigger apoptosis
